# From patent US20030187058A1, “Combination of lipoic acids and conjugated acids for treating diabetic disorders” (priority 2000, published 2003)
# How the values were obtained:
# epitrochlearis muscle = test: 2-Deoxyglucose uptake (glucose transport activity) in epitrochlearis muscle removed from treated obese Zucker rats, incubated in vitro; assay type: in vivo, obese Zucker rat (fa/fa); conditions: obese Zucker rats treated 18-20 days; for 2-Deoxyglucose level, Increase: insulin-stimulated minus basal; for 2-Deoxyglucose level, + Insulin [5 mU/ml] / 2-Deoxyglucose level, Basal: R-LA 10 mg/kg ip, CLA 0.3 mg/kg (table) by gavage; for 2-Deoxyglucose level, + Insulin [5 mU/ml]: insulin 5 mU/ml in vitro; for 2-Deoxyglucose level, Basal: no insulin
# Excerpt: (§1) The obese Zucker rat (fa/fa) is an animal model of insulin resistance, glucose intolerance, hyperinsulinaemia and dyslipidaemia. This model was used to determine the effect of four different forms of diet (control, R-lipoic acid (R—LA), conjugated linoleic acid (CLA) and a combination of conjugated linoleic acid and R-lipoic acid) on insulin-induced skeletal muscle glucose transport activity and on glucose tolerance.
# (§2) The test animals were maintained on regular chow and water ad libitum. […] R-lipoic acid was administered by intraperitoneal injection; conjugated linoleic acid by gavage. The treatment period lasted for 18-20 days.
# (§3) 24 hours after the final treatment and having been restricted to 4 g chow during the previous 13 hours, animals were deeply anaesthetised with pentobarbital sodium (50 mg/kg ip). Right soleus muscles and both right and left epitrochlearis muscles were surgically removed and prepared for incubation in vitro. Muscles were prepared as described by Peth J A et al. (Am J Physiol Regulatory Integrative Comp Physiol 2000; 278: R453-R459). Glucose transport activity was then determined as described by Hendriksen and Halseth (J Appl Physiol 1994; 76: 1862-1867).
# soleus muscle = test: 2-Deoxyglucose uptake (glucose transport activity) in soleus muscle removed from treated obese Zucker rats, incubated in vitro; assay type: in vivo, obese Zucker rat (fa/fa); conditions: obese Zucker rats treated 18-20 days; for 2-Deoxyglucose level, Increase: insulin-stimulated minus basal; for 2-Deoxyglucose level, + Insulin [5 mU/ml] / 2-Deoxyglucose level, Basal: R-LA 10 mg/kg ip, CLA 0.3 mg/kg (table) by gavage; for 2-Deoxyglucose level, + Insulin [5 mU/ml]: insulin 5 mU/ml in vitro; for 2-Deoxyglucose level, Basal: no insulin
# Excerpt: as §1, §2, §3
# skeletal muscle = test: Insulin-induced skeletal muscle glucose transport activity in treated obese Zucker rats (summary statement); assay type: in vivo, obese Zucker rat (fa/fa); conditions: each substance alone
# Excerpt: as §1
# The test animals were maintained on regular chow and water ad libitum. At the age of 9-10 weeks, the animals were assigned to either a vehicle-treated control group or to intervention groups receiving either R-lipoic acid (10 mg/kg bodyweight), conjugated linoleic acid (c9,t11:t10,c12; 50:50; 0.3 g/kg bodyweight) or both. R-lipoic acid was administered by intraperitoneal injection; conjugated linoleic acid by gavage. The treatment period lasted for 18-20 days.
# as §3, with “Muscles were prepared as described by Peth J A et al. (Am J Physiol Regulatory Integrative Comp Physiol 2000; 278: R453-R459).” left out
# [1] = system: patients with type II diabetes; conditions: single parenteral dose of 1,000 mg; cited from earlier work
# diabetic neuropathy = conditions: intravenous 600 mg a day for 3 weeks; cited from earlier work
# diabetic polyneuropathy = conditions: 3-week intravenous and subsequent 6-months oral treatment, cited from earlier work
# NIDDM patients = conditions: 800 mg each day for 4 months; cited from earlier work
Compound,"2-Deoxyglucose level, Increase (epitrochlearis muscle)","2-Deoxyglucose level, + Insulin [5 mU/ml] (epitrochlearis muscle)","2-Deoxyglucose level, Basal (epitrochlearis muscle)","2-Deoxyglucose level, Increase (soleus muscle)","2-Deoxyglucose level, + Insulin [5 mU/ml] (soleus muscle)","2-Deoxyglucose level, Basal (soleus muscle)","skeletal muscle glucose transport activity following stimulation by insulin, beyond the increase in the vehicle-treated control group (skeletal muscle)",glucose utilization [1],symptomatic complaints (diabetic neuropathy),neuropathic deficits (diabetic polyneuropathy),neuropathic symptoms (diabetic polyneuropathy; versus placebo),cardiovascular autonomic symptoms (NIDDM patients)
"O=C(O)CCCC[C@@H]1CCSS1 [R-LA, (R)-5-(1,2-dithiolan-3-yl)-valeric acid]",102 +/− 11 pmol/mg muscle,225 +/− 8 pmol/mg muscle,123 +/− 3 pmol/mg muscle,258 +/− 16 pmol/mg muscle,481 +/− 19 pmol/mg muscle,224 +/− 7 pmol/mg muscle,Neither R-lipoic acid nor conjugated linoleic acid alone increased,,,,,
"O=C(O)CCCCC1CCSS1 (stereo not shown) [lipoic acid, 5-(1,2-dithiolan-3-yl)valeric acid]",,,,,,,,distinct improvement,decreased,appeared to have a beneficial effect,no effect on neuropathic symptoms distinguishable from placebo,no significant change
conjugated linoleic acid [CLA],123 +/− 13 pmol/mg muscle,248 +/− 14 pmol/mg muscle,126 +/− 4 pmol/mg muscle,261 +/− 13 pmol/mg muscle,492 +/− 9 pmol/mg muscle,231 +/− 6 pmol/mg muscle,Neither R-lipoic acid nor conjugated linoleic acid alone increased,,,,,
